Patent publication US5169863A, “Hypersphyxia-causing methods” (K.K. Ueno Seiyaku Oyo Kenkyujo, priority 1988, dated 1992)

Columns and labels:
[1] = changing rate of blood pressure and heart rate by intravenous injection in anesthetized rats; type: in vivo, Wister male rats; conditions: for change in vivo at 1 mg/kg: Rattus norvegicus
Description: (blood pressure, heart rate increasing action by intravenous injection) Wister male rats (8 weeks old) were used as test animals. The rats were applied to anesthesia by intraperitoneal administration with 1.25 g/kg of urethane. The blood pressure was determined by inserting a polyethylene tube into a femoral artery, which was connected with a pressure transducer. The heart rate was determined from R wave of electrocardiograms (ECG) induced by standard limb lead II with a tachometer. Each test compound was dissolved in ethanol and intravenously administered to rats in 1 mg/kg diluted with Ringer's solution just before use. The maximum concentration of ethanol was 2 percent. An ethanol-containing Ringer without any test compound was used as a control to confirm the influence of the ethanol in each experiment. Each changing rate (%) in the blood pressure and heart rate before and after administration was determined, and the average of 3-4 experiments was shown in Table 1. Changing rates of blood pressure and heart rate were determined in the same manner as described in Example 1 except that the test compounds 60, 61 and 62 were used in different concentrations instead of the test compounds 1-55.

[2] = progressing a breath (change rate of breath rate); type: in vivo, Wister male rats; conditions: tail vein, rats; for change in vivo at 1 mg/kg: Rattus norvegicus, iv
Description: Wister male rats (8 weeks old) were applied to anesthesia by intraperitoneal administration with 1.25 g/kg of urethane. A pick-up for breath was fixed on a top of a rat's nose, and the breath curve was recorded on a polygraph while the breath rate was counted with a tachometer.
Each test compound was dissolved in ethanol and administered to rats through a tale vein in 1 mg/kg as diluted with Ringer's solution just before use. The maximum concentration of ethanol was 2 percent. Ringers solution containing ethanol but not containing test compound was administered at every experiment as a control. The change rates (%) of the breath rate before and after administration were determined, and evaluated as progressing activity of breath.

[3] = 1 (mg/kg), Table 1, read-out: changing rate of blood pressure
[4] = 1 (mg/kg), Table 1, read-out: changing rate of heart rate

SMILES | change in vivo at 1 mg/kg [1, 3] | change in vivo at 1 mg/kg [1, 4] | change in vivo at 1 mg/kg [2] | other results
CCCCC(C)(C)C(=O)CC[C@H]1[C@H](O)CC(=O)[C@@H]1C/C=C\CCCC(=O)OCC [Compound 34, 13,14-dihydro-15-keto-16,16-dimethyl-PGE2 ethyl ester] | 6% | 29% | 31% | 
COCCCCCC(=O)CC[C@H]1[C@H](O)CC(=O)[C@@H]1C/C=C\CC(C)CC(=O)OC (stereo partly shown) [Compound 47, 13,14-dihydro-15-keto-3R,S-methyl-20-methoxy-PGE2 methyl ester] | 1% | 4% | 17% | 
CCCCC(C)C(=O)CC[C@H]1[C@H](O)CC(=O)[C@@H]1C/C=C\CCCC(=O)OCC (stereo partly shown) [Compound 31, 13,14-dihydro-15-keto-16R,S-methyl-PGE2 ethyl ester] | 14% | 46% | 40% | 
CCCCCC(=O)CC[C@H]1[C@H](O)CC(=O)[C@@H]1CC(=O)CCCCC(=O)OC [Compound 6, 13,14-dihydro-6,15-diketo-PGE1 methyl ester] | 3% | 9% | 21% | 
CC(C)=CCCCCC(=O)CC[C@H]1[C@H](O)CC(=O)[C@@H]1C/C=C\CCCC(=O)O [Compound 49, 13,14-dihydro-15-keto-20-isopropylidene-PGE2] | 2% | 3% | 18% | 
CCCCCC(=O)CC[C@H]1[C@H](O)CC(=O)[C@@H]1CC(=O)CCCCC(=O)O [Compound 5, 13,14-dihydro-6,15-diketo-PGE1, reference compound] | -4% | 0% | 4% | 
CCCCCC(=O)CC[C@H]1[C@H](O)CC(=O)[C@@H]1CC(=O)CCCCC(=O)OCCCC [Compound 9, 13,14-dihydro-6,15-diketo-PGE1 n-butyl ester] | 2% | 26% | 26% | 
CCOC(=O)CCC/C=C\C[C@H]1C(=O)C[C@@H](O)[C@@H]1CCC(=O)CCCC(C)C [Compound 44, 13,14-dihydro-15-keto-19-methyl-PGE2 ethyl ester] | 20% | 30% | 16% | 
CCCCCC(=O)CC[C@H]1[C@H](O)CC(=O)[C@@H]1C/C=C\CC(C)CC(=O)OCC (stereo partly shown) [Compound 29, 13,14-dihydro-15-keto-3R,S-methyl-PGE2 ethyl ester] | 7% | 17% | 11% | 
CCCCCC(=O)CC[C@H]1[C@H](O)CC(=O)[C@@H]1C/C=C\CCCC(=O)OCCCC [Compound 24, 13,14-dihydro-15-keto-PGE2 n-butyl ester] | 5% | 5% | 41% | 
COC(=O)CCC/C=C\C[C@H]1C(=O)C[C@@H](O)[C@@H]1CCC(=O)CCCC(C)C [Compound 43, 13,14-dihydro-15-keto-19-methyl-PGE2 methyl ester] | 14% | 45% | 41% | 
COCCCCCC(=O)CC[C@H]1[C@H](O)CC(=O)[C@@H]1C/C=C\CCCC(=O)OC [Compound 45, 13,14-dihydro-15-keto-20-methoxy-PGE2 methyl ester] | 2% | 4% | 10% | 
CCCCC(F)C(=O)CC[C@H]1[C@H](O)CC(=O)[C@@H]1C/C=C\CCCC(=O)OCC (stereo partly shown) [Compound 38, 13,14-dihydro-15-keto-16R,S-fluoro-PGE2 ethyl ester] | 14% | 15% | 47% | 
CCCCCC(=O)CC[C@H]1[C@H](O)CC(=O)[C@@H]1C/C=C\CCCC(=O)OCCO [Compound 26, 13,14-dihydro-15-keto-PGE2 hydroxyethyl ester] |  |  |  | changing rate of blood pressure ([1]; 0.2, Table 1): 0%; changing rate of heart rate ([1]; 0.2, Table 1): 0%; changing rate of blood pressure ([1]; 0.5, Table 1): 0%; changing rate of heart rate ([1]; 0.5, Table 1): 0%; changing rate of blood pressure ([1]; 1 (mg/kg), Table 1): +2%; changing rate of heart rate ([1]; 1 (mg/kg), Table 1): +7%; progressing activity % of breath ([2]; 1 mg/kg): +22%
COCCCCCC(=O)CC[C@H]1[C@H](O)CC(=O)[C@@H]1C/C=C\CC=CC(=O)OC [Compound 46, 13,14-dihydro-15-keto-20-methoxy-Δ^2 -PGE2 methyl ester] | 5% | 13% | 10% | 
CCCCC(F)C(=O)CC[C@H]1[C@H](O)CC(=O)[C@@H]1CC(=O)CCCCC(=O)OCC (stereo partly shown) [Compound 13, 13,14-dihydro-6,15-diketo-16R,S-fluoro-PGE1 ethyl ester] | 11% | 20% | 53% | 
CCCCC(C)(C)C(=O)CC[C@H]1[C@H](O)CC(=O)[C@@H]1CC(=O)CCCCC(=O)OCC [Compound 12, 13,14-dihydro-6,15-diketo-16,16-dimethyl-PGE1 ethyl ester] | 17% | 38% | 44% | 
CCCCCCCC(=O)CC[C@H]1[C@H](O)CC(=O)[C@@H]1CCCCCCC(=O)OC [Compound 4, 13,14-dihydro-15-keto-20-ethyl-PGE1 methy ester] | 6% | 33% | 48% | 
CCCCC[C@H](O)/C=C/[C@H]1[C@H](O)CC(=O)[C@@H]1C/C=C\CCCC(=O)O [Compound 57, PGE2, reference compound] | -39% | 14% | 55% | blood pressure effect (in words) ([1]; Example 1 conclusion): blood pressure decreasing effect
CCCCC(C)C(=O)CC[C@H]1[C@H](O)CC(=O)[C@@H]1C/C=C\CCCC(=O)OC (stereo partly shown) [Compound 30, 13,14-dihydro-15-keto-16R,S-methyl-PGE2 methyl ester] | 14% | 29% | 61% | 
CCCCC(C)(C)C(=O)CC[C@H]1[C@H](O)CC(=O)[C@@H]1C/C=C\CCCC(=O)OC [Compound 33, 13,14-dihydro-15-keto-16,16-dimethyl-PGE2 methyl ester] | 20% | 28% | 40% | 
CCCCCCCC(=O)CC[C@H]1[C@H](O)CC(=O)[C@@H]1C/C=C\CCCC(=O)OC [Compound 51, 13,14-dihydro-15-keto-20-ethyl-PGE2 methyl ester] | 1% | 14% | 49% | 
CCCCC(C)C(=O)CC[C@H]1[C@H](O)CC(=O)[C@@H]1C/C=C\CC(C)CC(=O)OC (stereo partly shown) [Compound 32, 13,14-dihydro-15-keto-3R,S-16R,S-dimethyl-PGE2 methyl ester] | 14% | 30% | 41% | 
CCCCCC(=O)CC[C@H]1[C@H](O)CC(=O)[C@@H]1CC(=O)CCCCC(=O)OCC (relative stereo) [Compound 8, (±) 13,14-dihydro-6,15-diketo-PGE1 ethyl ester] | 8% |  | 65% | 
CCCCCC(=O)CC[C@H]1[C@H](O)CC(=O)[C@@H]1C/C=C\CCCC(=O)OCCC [Compound 23, 13,14-dihydro-15-keto-PGE2 n-propyl ester] | 5% | 4% | 37% | 
COC(=O)CCC/C=C\C[C@H]1C(=O)C[C@@H](O)[C@@H]1CCC(=O)CCCCC=C(C)C [Compound 50, 13,14-dihydro-15-keto-20-isopropylidene-PGE2 methyl ester] | 2% | 5% | 18% | 
CCCCC(C)C(=O)CC[C@H]1[C@H](O)CC(=O)[C@@H]1CC(=O)CCCCC(=O)OC (stereo partly shown) [Compound 10, 13,14-dihydro-6,15-diketo-16R,S-methyl-PGE1 methyl ester] | 22% | 37% | 63% | 
CCCCC(O)C(=O)CC[C@H]1[C@H](O)CC(=O)[C@@H]1C/C=C\CCCC(=O)OCC (stereo partly shown) [Compound 35, 13,14-dihydro-15-keto-16R,S-hydroxy-PGE2 ethyl ester] | 17% | 27% | 37% | 
